From patent publication US11306092B2, “Amino indole compounds useful as TLR inhibitors” (BRISTOL-MYERS SQUIBB COMPANY, priority 2017, dated 2022)

Legend:
Assay type in all cases: cell-based
human TLR7 = molecular target: T1, human TLR7 (Homo sapiens, UniProt Q9NYK1); test: TLR7 inhibition reporter assay (HEK-Blue SEAP reporter); settings: HEK-Blue cells overexpressing human TLR7; gardiquimod 7.5 μM; 22 hour incubation
T1 construct: host or cells: HEK-Blue cells
T1 sequence (Q9NYK1 27-1049): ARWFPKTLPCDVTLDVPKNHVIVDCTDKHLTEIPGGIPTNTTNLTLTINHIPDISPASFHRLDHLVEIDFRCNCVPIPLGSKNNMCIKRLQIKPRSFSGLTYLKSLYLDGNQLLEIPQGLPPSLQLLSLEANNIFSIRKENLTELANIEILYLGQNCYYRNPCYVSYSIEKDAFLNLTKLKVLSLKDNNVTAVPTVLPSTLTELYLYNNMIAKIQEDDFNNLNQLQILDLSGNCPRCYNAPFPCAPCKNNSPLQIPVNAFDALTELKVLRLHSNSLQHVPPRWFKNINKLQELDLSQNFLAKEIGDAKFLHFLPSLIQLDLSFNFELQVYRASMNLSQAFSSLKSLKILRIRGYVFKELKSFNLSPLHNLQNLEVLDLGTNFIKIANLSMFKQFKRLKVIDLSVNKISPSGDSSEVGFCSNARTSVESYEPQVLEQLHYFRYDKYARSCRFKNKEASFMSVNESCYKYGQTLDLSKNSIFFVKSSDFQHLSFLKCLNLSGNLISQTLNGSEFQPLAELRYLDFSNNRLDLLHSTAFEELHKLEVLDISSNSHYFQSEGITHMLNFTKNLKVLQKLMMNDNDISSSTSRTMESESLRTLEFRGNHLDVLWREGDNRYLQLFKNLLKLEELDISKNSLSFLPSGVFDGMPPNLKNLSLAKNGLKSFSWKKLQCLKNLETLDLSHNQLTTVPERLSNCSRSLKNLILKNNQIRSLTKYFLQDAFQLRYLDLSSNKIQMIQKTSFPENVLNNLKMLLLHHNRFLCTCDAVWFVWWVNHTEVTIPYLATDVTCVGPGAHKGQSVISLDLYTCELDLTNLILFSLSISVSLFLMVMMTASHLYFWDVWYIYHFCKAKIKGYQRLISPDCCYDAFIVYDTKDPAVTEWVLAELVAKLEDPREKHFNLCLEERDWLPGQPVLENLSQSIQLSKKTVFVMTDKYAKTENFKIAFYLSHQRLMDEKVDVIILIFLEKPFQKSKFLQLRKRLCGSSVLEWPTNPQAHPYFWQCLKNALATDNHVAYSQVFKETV
Method in brief: (§1)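 Screening used HEK-Blue cells overexpressing one human TLR (7, 8 or 9) and an IFN-β minimal promoter–NF-κB/AP-1 SEAP construct. Stimulation lasted 22 h at 37 °C with receptor-specific agonist: gardiquimod, R848 or ODN2006 at 7.5 μM, 15.9 μM and 5 nM.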

human TLR8 = molecular target: T2, human TLR8 (Homo sapiens, UniProt Q9NR97); test: TLR8 inhibition reporter assay (HEK-Blue SEAP reporter); settings: HEK-Blue cells overexpressing human TLR8; R848 15.9 μM; 22 hour incubation
T2 construct: host or cells: HEK-Blue cells
T2 sequence (Q9NR97 27-1041): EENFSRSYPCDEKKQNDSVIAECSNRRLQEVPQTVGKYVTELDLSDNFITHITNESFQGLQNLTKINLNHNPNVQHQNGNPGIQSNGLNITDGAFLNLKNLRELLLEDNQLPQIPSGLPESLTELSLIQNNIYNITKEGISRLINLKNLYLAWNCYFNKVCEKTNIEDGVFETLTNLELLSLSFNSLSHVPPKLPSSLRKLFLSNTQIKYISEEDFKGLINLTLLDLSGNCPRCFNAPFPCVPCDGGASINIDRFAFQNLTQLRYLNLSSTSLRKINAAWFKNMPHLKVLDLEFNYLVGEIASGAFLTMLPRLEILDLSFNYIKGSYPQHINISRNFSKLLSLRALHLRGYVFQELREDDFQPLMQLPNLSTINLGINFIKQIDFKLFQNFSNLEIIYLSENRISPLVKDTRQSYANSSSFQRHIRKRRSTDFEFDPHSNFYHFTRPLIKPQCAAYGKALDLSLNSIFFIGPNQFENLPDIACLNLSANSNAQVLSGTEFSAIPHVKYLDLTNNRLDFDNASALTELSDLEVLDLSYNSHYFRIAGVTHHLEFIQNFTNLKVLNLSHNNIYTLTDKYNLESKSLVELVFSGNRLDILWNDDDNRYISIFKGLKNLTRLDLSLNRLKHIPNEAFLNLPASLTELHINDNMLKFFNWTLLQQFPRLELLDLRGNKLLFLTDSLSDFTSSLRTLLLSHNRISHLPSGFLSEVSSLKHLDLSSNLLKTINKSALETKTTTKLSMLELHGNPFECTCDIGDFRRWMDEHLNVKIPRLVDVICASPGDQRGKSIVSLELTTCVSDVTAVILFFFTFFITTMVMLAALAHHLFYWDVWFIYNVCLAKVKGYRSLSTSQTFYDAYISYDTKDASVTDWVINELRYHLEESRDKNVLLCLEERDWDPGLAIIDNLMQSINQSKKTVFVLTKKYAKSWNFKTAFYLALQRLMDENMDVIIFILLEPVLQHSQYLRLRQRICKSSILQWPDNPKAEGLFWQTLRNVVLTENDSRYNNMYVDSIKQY
Experimental: TLR7/8/9 Inhibition Reporter Assays
HEK-Blue™-cells (Invivogen) overexpressing human TLR7, TLR8 or TLR9 receptors were used for screening inhibitors of these receptors using an inducible SEAP (secreted embryonic alkaline phosphatase) reporter gene under the control of the IFN-β minimal promoter fused to five NF-κB and AP-1-binding sites. Briefly, cells are seeded into Greiner 384 well plates (15000 cells per well for TLR7, 20,000 for TLR8 and 25,000 for TLR9) and then treated with test compounds in DMSO to yield a final dose response concentration range of 0.05 nM-50 μM. After a 30 minute compound pre-treatment at room temperature, the cells are then stimulated with a TLR7 ligand (gardiquimod at a final concentration of 7.5 μM), TLR8 ligand (R848 at a final concentration of 15.9 μM) or TLR9 ligand (ODN2006 at a final concentration of 5 nM) to activate NF-κB and AP-1 which induce the production of SEAP. After a 22 hour incubation at 37° C., 5% CO2, SEAP levels are determined with the addition of HEK-Blue™ Detection reagent (Invivogen), a cell culture medium that allows for detection of SEAP, according to manufacturer's specifications. The percent inhibition is determined as the % reduction in the HEK-Blue signal present in wells treated with agonist plus DMSO alone compared to wells treated with a known inhibitor.

human TLR9 = molecular target: T3, human TLR9 (Homo sapiens, UniProt Q9NR96); test: TLR9 inhibition reporter assay (HEK-Blue SEAP reporter); settings: HEK-Blue cells overexpressing human TLR9; ODN2006 5 nM; 22 hour incubation
T3 construct: host or cells: HEK-Blue cells
T3 sequence (Q9NR96 26-1032): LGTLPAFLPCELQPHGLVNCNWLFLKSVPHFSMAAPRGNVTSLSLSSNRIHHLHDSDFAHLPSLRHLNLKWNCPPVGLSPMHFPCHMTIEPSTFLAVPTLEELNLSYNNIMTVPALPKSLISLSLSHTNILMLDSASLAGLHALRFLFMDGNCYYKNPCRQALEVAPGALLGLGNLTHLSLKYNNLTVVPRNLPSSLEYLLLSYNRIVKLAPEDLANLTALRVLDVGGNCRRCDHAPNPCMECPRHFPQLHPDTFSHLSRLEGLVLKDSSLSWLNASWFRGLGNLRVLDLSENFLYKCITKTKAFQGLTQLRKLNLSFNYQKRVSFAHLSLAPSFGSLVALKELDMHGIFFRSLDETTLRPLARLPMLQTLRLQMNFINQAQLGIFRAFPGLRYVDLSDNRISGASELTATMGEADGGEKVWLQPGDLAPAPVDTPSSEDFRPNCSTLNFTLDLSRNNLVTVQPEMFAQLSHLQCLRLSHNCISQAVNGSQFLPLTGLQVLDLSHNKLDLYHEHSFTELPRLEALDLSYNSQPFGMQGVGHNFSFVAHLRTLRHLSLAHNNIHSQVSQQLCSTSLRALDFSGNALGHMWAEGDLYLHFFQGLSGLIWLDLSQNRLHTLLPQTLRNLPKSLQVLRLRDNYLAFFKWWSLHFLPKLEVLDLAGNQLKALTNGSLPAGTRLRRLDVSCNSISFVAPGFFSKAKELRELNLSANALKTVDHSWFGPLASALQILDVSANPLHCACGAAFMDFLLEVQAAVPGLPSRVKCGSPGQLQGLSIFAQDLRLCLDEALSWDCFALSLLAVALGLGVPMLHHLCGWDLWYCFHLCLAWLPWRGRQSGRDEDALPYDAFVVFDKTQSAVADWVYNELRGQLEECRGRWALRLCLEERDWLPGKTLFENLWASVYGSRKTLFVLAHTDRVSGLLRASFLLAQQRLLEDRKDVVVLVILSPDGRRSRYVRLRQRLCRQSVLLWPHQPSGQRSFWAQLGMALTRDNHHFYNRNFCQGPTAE
Method in brief: as §1

SMILES	IC50 (human TLR7) [nM]	IC50 (human TLR8) [nM]	IC50 (human TLR9) [nM]
COc1ccc(-c2[nH]c3ccc(N4CCC(NC5CCN(C(C)C)CC5)CC4)cc3c2C(C)C)cc1OC [Example 192, 1-(2-(3,4-dimethoxyphenyl)-3-isopropyl-1H-indol-5-yl)-N-(1-isopropylpiperidin-4-yl)piperidin-4-amine]	36	7.7	322
CNCCNC1CCC(Nc2ccc3[nH]c(-c4ccc(OC)c(OC)c4)c(C(C)C)c3c2)CC1 (single isomer, unassigned) [Example 30, N1-(2-(3,4-dimethoxyphenyl)-3-isopropyl-1H-indol-5-yl)-N4-(2-(methylamino)ethyl)cyclohexane-1,4-diamine]	434	234	281
COc1ccc(-c2[nH]c3ccc(N4CC(N5CCCNCC5)C4)cc3c2C(C)C)cc1OC [Example 29, 5-(3-(1,4-diazepan-1-yl)azetidin-1-yl)-2-(3,4-dimethoxyphenyl)-3-isopropyl-1H-indole]	760	27	3750
COc1ccc(-c2[nH]c3ccc(N4CCC(N(C)C)CC4)cc3c2C(C)C)cc1OC [Example 108, 1-(2-(3,4-dimethoxyphenyl)-3-isopropyl-1H-indol-5-yl)-N,N-dimethylpiperidin-4-amine]	23	10	2530
COc1ccc(-c2[nH]c3ccc(N4CCC(NCCCN(C)C)CC4)cc3c2C(C)C)cc1OC [Example 76, N1-(1-(2-(3,4-dimethoxyphenyl)-3-isopropyl-H-indol-5-yl)piperidin-4-yl)-N3,N3-dimethylpropane-1,3-diamine]	18	7.8	782
CCc1c(-c2ccnc3[nH]ccc23)[nH]c2ccc(N3CCN(C4CCN(C(C)C)CC4)CC3)cc12 [Example 157, 4-(3-ethyl-5-(4-(1-isopropylpiperidin-4-yl)piperazin-1-yl)-1H-indol-2-yl)-1H-pyrrolo[2,3-b]pyridine]	4230	635	559
CNCCNC1CCN(c2ccc3[nH]c(-c4ccnc(C)c4)c(C(C)C)c3c2)C1=O (stereo not drawn) [Example 1, 1-(3-isopropyl-2-(2-methylpyridin-4-yl)-1H-indol-5-yl)-3-((2-(methylamino)ethyl)amino)pyrrolidin-2-one]	189	16	488
CCNCCOc1ccc(Nc2ccc3[nH]c(-c4ccc(OC)c(OC)c4)c(C(C)C)c3c2)cc1 [Example 105, 2-(3,4-dimethoxyphenyl)-N-(4-(2-(ethylamino)ethoxy)phenyl)-3-isopropyl-1H-indol-5-amine]	1400	17	2260
COc1ccc(-c2[nH]c3ccc(N4CC5CCCNC5C4)cc3c2C(C)C)cc1OC (stereo not drawn) [Example 135, 6-(2-(3,4-dimethoxyphenyl)-3-isopropyl-1H-indol-5-yl)octahydro-1H-pyrrolo[3,4-b]pyridine]	774	95	2460
COc1ccc(-c2[nH]c3ccc(NC4CCC(N5CCN(c6ccncc6)CC5)CC4)cc3c2C(C)C)cc1OC (stereo not drawn) [Example 60, 2-(3,4-dimethoxyphenyl)-3-isopropyl-N-(4-(4-(pyridin-4-yl)piperazin-1-yl)cyclohexyl)-1H-indol-5-amine]	153	112	253
COc1ccc(-c2[nH]c3ccc(N4CCC(N(C)C)C4)cc3c2C(C)C)cc1OC (stereo not drawn) [Example 120, 1-(2-(3,4-dimethoxyphenyl)-3-isopropyl-H-indol-5-yl)-N,N-dimethylpyrrolidin-3-amine]	118	17	3290
Cc1c(-c2[nH]c3ccc(N4CCC(N(C)C)CC4)cc3c2C(C)C)cn(C)c(=O)c1Cl [Example 111, 3-chloro-5-(5-(4-(dimethylamino)piperidin-1-yl)-3-isopropyl-H-indol-2-yl)-1,4-dimethyl-114,215-pyridin-2-one]	2.4	1.8	3460
